Patent publication US7834152B2, “Antagonists of interleukin-15” (Beth Israel Deaconess Medical Center, Inc., priority 1996, dated 2010)
“Also recorded” adds a separate entry of the source. Like-named read-outs stand apart in the source and are kept apart here.

Key:
PHA-activated PBMCs = assay: Proliferative response to IL-2 or IL-15 of PBMCs pre-treated with immunosuppressive drugs and PHA; settings: cells pre-treated with PHA and drug, washed, cultured with IL-2 2 days
[1] = tested on: BAF-BO3 cells transfected with pRcCMV-IL-2Rβ; assay: [3H]-TdR proliferation assay, BAF-BO3 cells expressing human IL-2Rβ; format: cell-based, murine; settings: for cell proliferation ([3H]-TdR incorporation): cells expressing wild-type human IL-2Rβ subunit
Method: (§1) The BAF-BO3 cell line is an IL-3-dependent, murine pro-B cell line. A BAF-BO3 cell line that was pre-selected for high expression of the IL-2Rα subunit was kindly provided by T. Taniguchi (Osaka, Japan; Hatakeyama et al., Cell 59:837, 1989). BAF-BO3 cells were transfected with vector control (pRcCMV-0) or cDNA encoding the human IL-2Rβ subunit cloned into pRcCMV (pRcCMV-IL-2Rβ), by electroporation at 350 volts and 500 μFarads using 20 μg of ScaI linearized plasmid. Transfected cells were selected in the presence of 1 mg/ml G418 and tested for the expression of the IL-2Rβ subunit by fluorescence activated cell sorting (FACS) analysis as described (Maslinski et al., Int. Immunol. 4:509, 1992; Hataleyama et al., Cell 59:837, 1989).
IL-3 dependent BAF-BO3 cells, which constitutively express the IL-2Rγ subunit, were transfected with a control pRcCMV construct (pRcCMV-0) or a pRcCMV construct containing cDNA encoding the full-length human IL-2Rβ_subunit and the neo^r gene (pRcCMV-IL-2Rβ). G418 resistant clones were then selected. Cells that were selected in this way were used to test the biological activity of FLAG-HMK-IL-15. […] Cells were washed twice to remove the medium containing the growth factor IL-3, and starved for 16 hours in RPMI-1640 medium supplemented with 10% FCS, penicillin (0.5 U/ml), and streptomycin (0.5 μg/ml). Cells were then plated at 2×10^4 cells/well, stimulated with FLAG-HMK-IL-15, and cultured for 72 hours at 37° C. in an atmosphere containing 5% CO2. This was followed by a 14 hour “pulse” with 1 μCi of [^3H]-TdR. The BAF-BO3 cells were then harvested and cell-associated radioactivity was measured by scintillation counting as described above.
In order to study the effect of various IL-15 related proteins, including the mutant polypeptides described above, on the proliferation of BAF-BO3 cells, the following experiment was performed in vitro. BAF-BO3 cells were transfected in culture with DNA from either pRcCMV-IL-2Rβ or pRcCMV-0.

IL-15Rα subunit = molecular target: T1, IL-15Rα subunit (Homo sapiens, UniProt Q13261); assay: Cross-linking of [32P]-FLAG-HMK-IL-15 to PHA-activated PBMCs (DSS, SDS-PAGE, autoradiography); format: binding
T1 construct: endogenous in cells
T1 sequence (Q13261 31-267): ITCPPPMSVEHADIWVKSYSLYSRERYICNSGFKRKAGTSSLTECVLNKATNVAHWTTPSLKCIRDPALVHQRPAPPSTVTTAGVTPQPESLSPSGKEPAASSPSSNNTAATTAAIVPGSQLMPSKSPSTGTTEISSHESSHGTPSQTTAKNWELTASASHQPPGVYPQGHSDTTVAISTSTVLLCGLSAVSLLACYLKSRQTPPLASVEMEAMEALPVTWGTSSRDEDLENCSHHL
Method: After 72 hours in culture, PHA-activated PBMCs were washed twice in cold phosphate-buffered saline (PBS), and 10^7 cells/ml were incubated for 30 minutes at 4° C. in 400 μl of RMPI-1640 medium supplemented with 25 mM HEPES (pH 7.4), 10% FCS, penicillin (0.5 U/ml), and streptomycin (0.5 μg/ml). Supplemented RPMI-1640 medium (20 μl) containing 1 μg of recombinant human IL-15 as a control for non-specific binding or medium alone was then added, and the incubation was continued for 15 minutes before 20 μl of medium containing [^32P]-labeled FLAG-HMK-IL-15 (1 ng, 500,000 cpm) was added to each sample. After further incubation for 1 hour at 4° C., the cells were washed with PBS and resuspended in 250 μl of PBS. Disuccinimidyl suberate (DDS; 1 mM), a cross-linker, was added, and cross-linking was performed as described by Tsudo et al. (Proc. Natl. Acad. Sci. USA 83:9694, 1986). The cross-linked cells were collected by centrifugation, washed, solubilized with extraction buffer (2% Nonidet P-40, 0.14 M NaCl, 25 mM HEPES (pH 7.4), 1 mM phenyl-methylsulfonyl fluoride) and centrifuged. Proteins present in the supernatants of these cell lysates were separated by 8% SDS-PAGE under reducing conditions. An autoradiogram was developed from the dry gel after exposure at −70° C. overnight. […]

[2] = tested on: BAF-BO3 cells transfected with pRcCMV-0; assay: [3H]-TdR proliferation assay, BAF-BO3 vector control cells; format: cell-based, murine; settings: vector lacking IL-2Rβ chain sequences
Method: as §1
IL-3 dependent BAF-BO3 cells, which constitutively express the IL-2Rγ subunit, were transfected with a control pRcCMV construct (pRcCMV-0) or a pRcCMV construct containing cDNA encoding the full-length human IL-2Rβ_subunit and the neo^r gene (pRcCMV-IL-2Rβ). G418 resistant clones were then selected. Cells that were selected in this way were used to test the biological activity of FLAG-HMK-IL-15. […] The BAF-BO3 cells were then harvested and cell-associated radioactivity was measured by scintillation counting as described above. […]

[3] = tested on: leukemia cells (MOLT-14, YT, HuT-102, 2A, 2B); assay: Flow cytometry staining of leukemic cell lines with FLAG-HMK-IL-15; format: binding
Method: The cells treated were from the leukemic cell lines MOLT-14, YT, HuT-102, and from cell lines currently being established at Beth Israel Hospital (Boston, Mass.), and designated 2A and 2B. The cultured cells were washed and incubated with either medium alone (tracing alone) or with medium containing the FLAG-HMK-IL-15 polypeptide (tracing filled in). The cells were then incubated with the biotinylated anti-FLAG antibody and stained with RED670-conjugated streptavidin. The stained cells were analyzed by flow cytometry.
The cells treated were obtained from the leukemic cell lines MOLT-14, YT, HuT-102, and from cell lines currently being established at Beth Israel Hospital (Boston, Mass.), and named 2A and 2B. The cultured cells were washed and incubated with either medium alone or with medium containing the FLAG-HMK-IL-15 wild-type polypeptide (FIG. 18). The cells were then incubated with the biotinylated anti-FLAG antibody and stained with RED670-conjugated streptavidin. The stained cells were analyzed by flow cytometry.

[4] = tested on: PHA-activated human PBMCs; assay: [3H]-TdR proliferation assay, PHA-activated human PBMCs; format: cell-based; settings: PHA-activated PBMCs re-stimulated with reagent
Method: Peripheral blood mononuclear cells (1×10^6/ml) were stimulated with PHA (2 μg/ml) for 72 hours at 37° C. in RPMI-1640 medium supplemented with 10% FCS, penicillin, and streptomycin, as described above.
In the next series of experiments, the FLAG-HMK-IL-15 fusion protein was tested in order to determine whether it could function as a biologically active growth factor.

[5] = tested on: IL-15 binding sites on PHA-activated human PBMCs; assay: Flow cytometry staining of PHA-activated PBMCs (anti-FLAG biotinylated Ab, streptavidin-RED670)
Method: Resting or PHA-activated PBMCs (3×10^5 cells/tube) were washed twice with ice-cold PBS/0.02% sodium azide and incubated in medium containing FLAG-HMK-IL-15 (0.1 μg/100 μl) or, as a control, in medium alone. The incubation was carried out on ice for 30 minutes. The cells were then washed with PBS and incubated for two sequential 30 minute periods at 4° C. with biotin-conjugated anti-FLAG monoclonal antibody (0.5 μg/100 μl) and streptavidin-RED670 (0.5 μg/100 μl). The cells were then counterstained with CD25-PE, CD14-PE, CD16-PE, CD122-PE, CD4-FITC, or CD8-FITC, as indicated. […] Cell surface phenotype was analyzed using FACScan (Becton/Dickinson, Calif.) and Cell Quest software.
The FLAG-HMK-IL-15 fusion protein, biotinylated anti-FLAG antibody, and streptavidin-RED670 were employed to detect expression of IL-15 binding sites on human PBMCs by cytofluorometric analysis. […] The stained cells were analyzed by flow cytometry (FIG. 4A). […] Both activated CD4^+ and CD8^+ cells express IL-15α chains (FIG. 4C); Activation induced IL-15α chains were also detected on CD14^+ (monocyte/macrophage) cells and CD16^+ (natural killer) cells.
PHA-activated PBMCs were washed and incubated with medium alone, or with the FLAG-HMK-IL-15 double mutant. […] The stained cells were analyzed by flow cytometry (FIG. 17).

[6] = tested on: IL-2Rαγ+ BAF-BO3 cells that express mutant S− IL-2Rβ subunit; assay: Proliferation assay, BAF-BO3 cells expressing mutant S− IL-2Rβ subunit; format: cell-based, murine; settings: IL-2Rβ lacking serine-rich region (S−), 38 hours
From the text: Error bars indicate the mean±standard deviation.
Therefore, the ability of IL-15 to induce the proliferation of IL-2Rαγ^+BAF-BO3 cells that express either the wild-type IL-2Rβ subunit or a mutant IL-2Rβ protein that lacks the serine rich region (S^−).

`C[C@@H]1C[C@H]2[C@@H]3CCC4=CC(=O)C=C[C@]4(C)[C@@]3(F)[C@@H](O)C[C@]2(C)[C@@]1(O)C(=O)CO` [dexamethasone] was tested, and the “proliferative response to IL-2” value (PHA-activated PBMCs) was “not inhibited”.
For `O=c1c(-c2ccc(O)cc2)coc2cc(O)cc(O)c12` [genistein], the cell viability (human PBMCs; genistein 10 μg/ml, 3 days of incubation) was 659±15 % of the control.
For `CO[C@H]1C[C@@H]2CC[C@@H](C)[C@@](O)(O2)C(=O)C(=O)N2CCCC[C@H]2C(=O)O[C@H]([C@H](C)C[C@@H]2CC[C@@H](O)[C@H](OC)C2)CC(=O)[C@H](C)/C=C(\C)[C@@H](O)[C@@H](OC)C(=O)[C@H](C)C[C@H](C)/C=C/C=C/C=C/1C` [rapamycin], the cell viability (human PBMCs; human, 3 days, 10 ng/ml) was 8.5%±10%.
“FLAG-HMK-IL-15 Q149D single mutant: IL-15 single mutant, glutamine at position 149 changed to aspartate, FLAG-HMK tagged” was tested, and the “cell proliferation ([3H]-TdR incorporation)” value [1] was “stimulated cellular proliferation”.
With “FLAG-HMK-IL-15: IL-15 polypeptide having an N-terminus covalently bound to the 18 amino acid FLAG-HMK-sequence” the “binding to the IL-15Rα subunit on mitogen-activated PBMCs” value (IL-15Rα subunit; [32P]-labeled protein, DSS cross-linking, 4° C.) was “site specific binding”, the “cell proliferation ([3H]-TdR incorporation)” value [2] was “does not, however, stimulate the proliferation” and the “cell proliferation ([3H]-TdR incorporation)” value [1] was “stimulates proliferation; also recorded: stimulated cellular proliferation”. For the same molecule, the “binding to leukemia cells” value [3] was “bind leukemia cells” and the “cell proliferation ([3H]-TdR incorporation)” value [4] was “proliferate in response to”.
“IL-15: recombinant human IL-15 obtained from PeproTech” was tested, and the “competition of [32P]-FLAG-HMK-IL-15 cross-linked band” value (IL-15Rα subunit; molar excess of competitor) was “failed to detect”, the “cell proliferation ([3H]-TdR incorporation)” value [1] was “stimulate the proliferation; also recorded: stimulated cellular proliferation” and the “blocking of FLAG-HMK-IL-15 binding to PHA activated PBMCs” value ([5]; molar excess of competitor) was “blocked”. The cell proliferation [6] was “neither cytokine is able to stimulate”.
For “double mutant IL-15: human IL-15 protein bearing a double mutation (Q149D; Q156D), FLAG-HMK tagged”, the “inhibition of BAF-BO3 proliferation” value ([1]; IL-15 + double mutant, 30 μl (approximately 50 μg/ml) versus 20 μL of the same concentration) was “inhibited proliferation more completely”, the “cell proliferation ([3H]-TdR incorporation)” value [1] was “did not proliferate” and the “binding to PHA-activated human PBMCs” value ([5]; flow cytometry) was “bind PHA-activated human PBMCs”.
